Read-outs that look alike come from different tables or passages of the source. Where a SMILES comes first, the peptide text is derived from it. Bridges are numbered along the chain shown (N, C = ends). [ ]: non-standard residue; d: D form. The star is where a group is joined. DOTA = O=C(O)CN1CCN(CC(=O)O)CCN(CC(=O)*)CCN(CC(=O)O)CC1; Phe(4-CN) = N#Cc1ccc(C[C@H](N)C(=O)O)cc1; Pro(cis-4-F) = O=C(O)[C@@H]1C[C@H](F)CN1; Phe(4-NH2) = Nc1ccc(C[C@H](N)C(=O)O)cc1; Hyp = O=C(O)[C@@H]1C[C@@H](O)CN1; αMeF = C[C@](N)(Cc1ccccc1)C(=O)O; LaDOTA = La(III) DOTA conjugate; Pentanoyl(4-Me) = CC(C)CCC(=O)*; Cit = NC(=O)NCCC[C@H](N)C(=O)O; NMeL = CN[C@@H](CC(C)C)C(=O)O; Butoxycarbonyl = CCCCOC(=O)*; NMeNle = CCCC[C@H](NC)C(=O)O; Nle = CCCC[C@H](N)C(=O)O; Aze = O=C(O)[C@@H]1CCN1; Nva = CCC[C@H](N)C(=O)O; Pentanoyl = CCCCC(=O)*; Aib = CC(C)(N)C(=O)O
Assays:
human uPAR (uPAR-Fc) = target: T1, human uPAR (uPAR-Fc) (Homo sapiens, UniProt Q03405); experiment: Surface plasmon resonance (SPR) assay, single cycle kinetics; format: binding; details: pKD category for uPAR SPR activity assay, uPAR-Fc on Protein A-Chip, 25°C; for Kd: read-out: pKD CAT (converted)
T1 construct: comprising amino acids Leu23-Arg303 according to UniProt entry Q03405.1; purchased R&D Systems 10378-UK-100
T1 sequence (Q03405 23-303): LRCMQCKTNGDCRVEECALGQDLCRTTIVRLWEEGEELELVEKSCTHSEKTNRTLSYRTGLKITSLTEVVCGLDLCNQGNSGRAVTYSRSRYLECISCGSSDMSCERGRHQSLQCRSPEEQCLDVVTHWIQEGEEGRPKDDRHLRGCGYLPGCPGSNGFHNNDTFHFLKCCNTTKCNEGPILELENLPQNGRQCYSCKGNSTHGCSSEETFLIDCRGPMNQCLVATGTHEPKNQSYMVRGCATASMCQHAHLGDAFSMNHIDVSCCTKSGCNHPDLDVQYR
Method in brief: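 uPAR-Fc (Leu23-Arg303 extracellular domains, human IgG1 Fc) captured on Protein A chip to ~2000 RU; single-cycle kinetics at 25°C in HEPES running buffer pH 7.4 with 0.1% DMSO. KD from double-referenced sensorgrams fitted to 1:1 Langmuir model, reported as pKD.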

[1] = target: T2, uPAR-expressing HEC-265 human endometrial adenocarcinoma cells (Homo sapiens, UniProt Q03405); experiment: Competitive FACS binding assay; details: pIC50 category of FACS binding
T2 construct: Cell surface uPAR-expressing HEC-265 human endometrial adenocarcinoma cells; host or cells: HEC-265
T2 sequence (Q03405 23-335): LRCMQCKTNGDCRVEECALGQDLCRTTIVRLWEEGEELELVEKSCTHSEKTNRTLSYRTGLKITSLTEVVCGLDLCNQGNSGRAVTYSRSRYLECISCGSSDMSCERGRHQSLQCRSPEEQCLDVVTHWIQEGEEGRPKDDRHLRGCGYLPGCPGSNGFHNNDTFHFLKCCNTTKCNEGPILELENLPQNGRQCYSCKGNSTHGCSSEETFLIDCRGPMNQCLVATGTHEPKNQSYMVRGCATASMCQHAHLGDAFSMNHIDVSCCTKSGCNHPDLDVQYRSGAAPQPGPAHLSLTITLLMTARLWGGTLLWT
Method in brief: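 HEC-265 cells incubated 1 h at 4 °C with 10 nM biotinylated uPAR peptide tracer plus increasing test compound, then stained with APC-streptavidin on ice. Median APC fluorescence by flow cytometry; 4PL fit gives pIC50.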

Row | Compound | Kd (human uPAR (uPAR-Fc)) | IC50 [1] | Kd (human uPAR (uPAR-Fc); single cycle kinetics) | pKD CAT (human uPAR (uPAR-Fc)) | pIC50 CAT [1]
1 | CCCCC(=O)N[C@H]1CSSC[C@@H](C(N)=O)NC(=O)[C@H](CCC)NC(=O)[C@H]([C@@H](C)CC)NC(=O)[C@@H]2C[C@@H](O)CN2C(=O)[C@@H]2CCCN2C(=O)[C@H](Cc2c[nH]c3ccccc23)NC(=O)[C@H](Cc2ccc(O)cc2)NC(=O)[C@H](CCC(N)=O)NC(=O)[C@H](CCCNC(=N)N)NC1=O [UPAR-308, Pent-[Cys-Arg-Gln-Tyr-Trp-Pro-Hyp-Ile-Nva-Cys]-NH2] (Pentanoyl-CRQYWP[Hyp]I[Nva]C-NH2; disulfide 1-10) | 0.00158 to 0.01 µM | ≤ 0.01 µM |  |  | 
2 | CCCCOC(=O)N[C@H]1CSSC[C@@H](C(N)=O)NC(=O)[C@H](CCC)NC(=O)[C@H]([C@@H](C)CC)NC(=O)[C@@H]2C[C@@H](O)CN2C(=O)[C@@H]2C[C@H](F)CN2C(=O)[C@H](Cc2ccc(C#N)cc2)NC(=O)[C@H](Cc2ccc(O)cc2)NC(=O)[C@H](CCCCNC(=O)CN2CCN(CC(=O)O)CCN(CC(=O)O)CCN(CC(=O)O)CC2)NC(=O)[C@H]([C@@H](C)O)NC1=O [UPAR-378, Butoc-[Cys-Thr-Lys(DOTA)-Tyr-Pnf-4Cfp-Hyp-Ile-Nva-Cys]-NH2] (Butoxycarbonyl-CTK(DOTA)Y[Phe(4-CN)][Pro(cis-4-F)][Hyp]I[Nva]C-NH2; disulfide 1-10) |  | ≤ 0.01 µM | < 0.00158 µM |  | 
3 | CCC[C@@H]1NC(=O)[C@H]([C@@H](C)CC)NC(=O)[C@@H]2C[C@@H](O)CN2C(=O)[C@@H]2CCCN2C(=O)[C@H](Cc2ccccc2)NC(=O)[C@H](Cc2ccc(O)cc2)NC(=O)[C@H](CCC(N)=O)NC(=O)[C@H](CCCNC(=N)N)NC(=O)[C@@H](NC(=O)[C@H](CC(C)C)N(C)C(C)=O)CSSC[C@@H](C(N)=O)NC1=O [UPAR-483, Ac-Nml-[Cys-Arg-Gln-Tyr-Phe-Pro-Hyp-Ile-Nva-Cys]-NH2] (Ac-[NMeL]CRQYFP[Hyp]I[Nva]C-NH2; disulfide 2-11) |  | ≤ 0.01 µM | < 0.00158 µM |  | 
4 | Pent-[Cys-Cit-Lys(LaDOTA)-Tyr-Phe-Pro-Aib-Ile-Nva-Cys]-NH2 (Pentanoyl-C[Cit]K(LaDOTA)YFP[Aib]I[Nva]C-NH2; disulfide 1-10; not fully specified; also: La(III) complexed by DOTA) [UPAR-279] |  |  |  | A (pKD values ≥ 8.8) | A (pIC50 values ≥8.0)
5 | CCCCC(=O)N[C@H]1CSSC[C@@H](C(N)=O)NC(=O)[C@H](CCC)NC(=O)[C@H]([C@@H](C)CC)NC(=O)[C@@H]2C[C@@H](O)CN2C(=O)[C@H](CCCC)N(C)C(=O)[C@H](Cc2ccccc2)NC(=O)[C@H](Cc2ccc(O)cc2)NC(=O)[C@H](CCC(N)=O)NC(=O)[C@H](CCCNC(=N)N)NC1=O [UPAR-337, Pent-[Cys-Arg-Gln-Tyr-Phe-Nmb-Hyp-Ile-Nva-Cys]-NH2] (Pentanoyl-CRQYF[NMeNle][Hyp]I[Nva]C-NH2; disulfide 1-10) | < 0.00158 µM | ≥ 0.126 µM |  |  | 
6 | CCCCC(=O)N[C@H]1CSSC[C@@H](C(N)=O)NC(=O)[C@H](CCC)NC(=O)[C@H]([C@@H](C)CC)NC(=O)[C@@H]2C[C@@H](O)CN2C(=O)[C@@H]2CCCN2C(=O)[C@H](Cc2ccccc2)NC(=O)[C@H](CCCCN)NC(=O)[C@H](CCC(N)=O)NC(=O)[C@H](CCCNC(=N)N)NC1=O [UPAR-442, Pent-[Cys-Arg-Gln-Lys-Phe-Pro-Hyp-Ile-Nva-Cys]-NH2] (Pentanoyl-CRQKFP[Hyp]I[Nva]C-NH2; disulfide 1-10) |  | 0.0398 to 0.1 µM | 0.01 to 0.1 µM |  | 
7 | CC[C@H](C)[C@@H]1NC(=O)[C@@H](C)NC(=O)[C@@H]2CCCN2C(=O)[C@H](Cc2ccccc2)NC(=O)[C@H](Cc2ccc(N)cc2)NC(=O)[C@H](CCC(N)=O)NC(=O)[C@H](CCCNC(N)=O)NC(=O)[C@@H](NC(=O)CCC(C)C)CSSC[C@@H](C(N)=O)NC(=O)[C@H](CC(C)C)NC1=O [UPAR-314, iHex-[Cys-Cit-Gln-Aph-Phe-Pro-ala-Ile-Leu-Cys]-NH2] ({Pentanoyl(4-Me)}-C[Cit]Q[Phe(4-NH2)]FP[dA]ILC-NH2; disulfide 1-10) | < 0.00158 µM | ≤ 0.01 µM |  |  | 
8 | CCCCC(=O)N[C@H]1CSSC[C@@H](C(N)=O)NC(=O)[C@H](CCC)NC(=O)[C@H]([C@@H](C)CC)NC(=O)[C@@H]2C[C@@H](O)CN2C(=O)[C@@H]2CCCN2C(=O)[C@](C)(Cc2ccccc2)NC(=O)[C@H](Cc2ccc(O)cc2)NC(=O)[C@H](CCCCNC(=O)CN2CCN(CC(=O)O)CCN(CC(=O)O)CCN(CC(=O)O)CC2)NC(=O)[C@H](CCCNC(N)=O)NC1=O [UPAR-416, Pent-[Cys-Cit-Lys(DOTA)-Tyr-Amf-Pro-Hyp-Ile-Nva-Cys]-NH2] (Pentanoyl-C[Cit]K(DOTA)Y[αMeF]P[Hyp]I[Nva]C-NH2; disulfide 1-10) |  | ≥ 0.126 µM | > 0.1 µM |  | 
9 | CCCC[C@@H]1NC(=O)[C@H](CCCNC(=N)N)NC(=O)[C@@H](NC(=O)[C@H](CC(C)C)NC(=O)[C@@H](CC(=O)O)NC(C)=O)CSSC[C@@H](C(N)=O)NC(=O)[C@H](CC(C)C)NC(=O)[C@H]([C@@H](C)CC)NC(=O)[C@H](C)NC(=O)[C@@H]2CCCN2C(=O)[C@H](Cc2ccccc2)NC(=O)[C@H](Cc2ccc(O)cc2)NC1=O [UPAR-133, Ac-asp-Leu-[Cys-Arg-Nle-Tyr-Phe-Pro-Ala-Ile-Leu-Cys]-NH2] (Ac-[dD]LCR[Nle]YFPAILC-NH2; disulfide 3-12) | < 0.00158 µM | ≤ 0.01 µM |  |  | 
10 | CCCCC(=O)N[C@H]1CSSC[C@@H](C(N)=O)NC(=O)[C@H](CCC)NC(=O)[C@H](CCCCN)NC(=O)[C@@H]2C[C@@H](O)CN2C(=O)[C@@H]2CCCN2C(=O)[C@H](Cc2ccccc2)NC(=O)[C@H](Cc2ccc(O)cc2)NC(=O)[C@H](CCC(N)=O)NC(=O)[C@H](CCCNC(=N)N)NC1=O [UPAR-385, Pent-[Cys-Arg-Gln-Tyr-Phe-Pro-Hyp-Lys-Nva-Cys]-NH2] (Pentanoyl-CRQYFP[Hyp]K[Nva]C-NH2; disulfide 1-10) |  | ≥ 0.126 µM | 0.01 to 0.1 µM |  | 
11 | CC[C@H](C)[C@@H]1NC(=O)[C@@H]2CCN2C(=O)[C@@H]2CCCN2C(=O)[C@H](Cc2ccccc2)NC(=O)[C@H](Cc2ccc(O)cc2)NC(=O)[C@H](CCC(N)=O)NC(=O)[C@H](CCCNC(N)=O)NC(=O)[C@@H](NC(=O)CCC(C)C)CSSC[C@@H](C(N)=O)NC(=O)[C@H](CC(C)C)NC1=O [UPAR-446, iHex-[Cys-Cit-Gln-Tyr-Phe-Pro-Aze-Ile-Leu-Cys]-NH2] ({Pentanoyl(4-Me)}-C[Cit]QYFP[Aze]ILC-NH2; disulfide 1-10) |  | ≤ 0.01 µM | < 0.00158 µM |  | 
12 | CC[C@H](C)[C@@H]1NC(=O)[C@@H](C)NC(=O)[C@@H]2CCCN2C(=O)[C@H](Cc2ccccc2)NC(=O)[C@H](Cc2ccc(O)cc2)NC(=O)[C@H](CCCCNC(=O)CN2CCN(CC(=O)O)CCN(CC(=O)O)CCN(CC(=O)O)CC2)NC(=O)[C@H](CC(=O)O)NC(=O)[C@@H](NC(=O)[C@H](CC(C)C)NC(=O)[C@H](CC(=O)O)NC(C)=O)CSSC[C@@H](C(N)=O)NC(=O)[C@H](CC(C)C)NC1=O [UPAR-432, Ac-Asp-Leu-[Cys-Asp-Lys(DOTA)-Tyr-Phe-Pro-ala-Ile-Leu-Cys]-NH2] (Ac-DLCDK(DOTA)YFP[dA]ILC-NH2; disulfide 3-12) |  | 0.0126 to 0.0316 µM | 0.01 to 0.1 µM |  | 
13 | CC[C@H](C)[C@@H]1NC(=O)[C@@H]2C[C@@H](O)CN2C(=O)[C@@H]2CCCN2C(=O)[C@H](Cc2ccccc2)NC(=O)[C@H](Cc2ccc(O)cc2)NC(=O)[C@H](CC(=O)O)NC(=O)[C@H](CCCNC(=N)N)NC(=O)[C@@H](NC(=O)CCC(C)C)CSSC[C@@H](C(N)=O)NC(=O)[C@H](CC(C)C)NC1=O [UPAR-458, iHex-[Cys-Arg-Asp-Tyr-Phe-Pro-Hyp-Ile-Leu-Cys]-NHz] ({Pentanoyl(4-Me)}-CRDYFP[Hyp]ILC-NH2; disulfide 1-10) |  | ≤ 0.01 µM | < 0.00158 µM |  | 
